# Measured values as given in US11046690B2, “Pyridazinones and methods of use thereof” (Goldfinch Bio, Inc., priority 2018, dated 2021).
# Molecular target: T1, TRPC5 (Homo sapiens, UniProt Q9UL62)
# T1 construct: expressed in transfected cells
# T1 sequence (Q9UL62 1-973): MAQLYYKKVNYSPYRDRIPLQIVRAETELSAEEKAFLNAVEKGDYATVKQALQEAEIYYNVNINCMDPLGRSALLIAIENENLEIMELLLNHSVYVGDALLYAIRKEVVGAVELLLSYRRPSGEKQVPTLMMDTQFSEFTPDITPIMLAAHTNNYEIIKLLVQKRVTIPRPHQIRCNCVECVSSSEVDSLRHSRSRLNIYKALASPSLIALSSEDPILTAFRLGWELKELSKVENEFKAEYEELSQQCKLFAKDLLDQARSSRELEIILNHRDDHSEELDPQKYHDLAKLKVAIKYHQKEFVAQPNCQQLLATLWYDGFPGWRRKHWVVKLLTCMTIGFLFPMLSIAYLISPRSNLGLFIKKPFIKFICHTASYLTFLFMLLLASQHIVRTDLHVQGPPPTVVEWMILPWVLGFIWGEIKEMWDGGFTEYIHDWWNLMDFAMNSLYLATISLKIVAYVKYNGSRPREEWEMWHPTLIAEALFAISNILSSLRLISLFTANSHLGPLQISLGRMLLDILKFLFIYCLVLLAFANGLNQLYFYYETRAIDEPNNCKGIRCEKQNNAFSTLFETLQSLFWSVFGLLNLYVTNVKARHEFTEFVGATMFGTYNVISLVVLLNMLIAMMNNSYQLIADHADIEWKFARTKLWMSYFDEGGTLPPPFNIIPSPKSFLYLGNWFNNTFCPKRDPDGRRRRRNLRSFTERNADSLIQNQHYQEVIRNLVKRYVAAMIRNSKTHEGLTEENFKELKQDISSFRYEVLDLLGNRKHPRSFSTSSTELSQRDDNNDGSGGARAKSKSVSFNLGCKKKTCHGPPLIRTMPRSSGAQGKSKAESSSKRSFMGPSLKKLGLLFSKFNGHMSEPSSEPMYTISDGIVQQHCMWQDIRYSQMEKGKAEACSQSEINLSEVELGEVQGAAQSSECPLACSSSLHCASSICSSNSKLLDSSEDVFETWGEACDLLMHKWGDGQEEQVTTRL
# Experiment: TRPC5 activity assay (FLIPR calcium fluorescence, Riluzole stimulation)
# Format: cell-based
# Settings: HEK-TREx hTRPC5 cells, 30 μM Riluzole stimulation; read-out: TRPC5 (IC50 class)
# Protocol: ICLN-1633 cells (HEK-TREx hTRPC5) expressing TRPC5 were generated as follows. Commercially available HekTrex-293 cells were seeded at 0.7×10^6 cells/well in a 1×6-well plate 24 hrs prior to transfection using 2 mL cell growth media containing no antibiotics (1× DMEM/high glucose (Hyclone #SH30022.02); 10% fetal bovine serum (Sigma) 2 mM sodium pyruvate, 10 mM HEPES). […] On day 2, 2 μg of plasmid DNA plus 6 μl of Xtreme-GENE HP reagent in Optimem (200 μl total volume) was prepared and incubated for 15 min at room temperature. This plasmid solution was then gently overlayed dropwise onto each well and the plate was gently swirled to mix complex with the media for approximately 30 seconds. Transfected cells were incubated at 37° C. in a 10%/CO2 incubator for 24 hrs. The transfected cells were harvested and transferred into 2×150 mm dishes containing cell growth media with no antibiotics at 37° C.
# The next day selection was initiated to generate a stable pool by adding cell growth media containing 150 μg/mL Hygromycin and 5 μg/mL Blasticidin and cells were allowed to grow. Media with the selection agent was changed every 1-2 days as needed to remove dead cells. After 7 days, the hygromycin concentration was reduced to 75 μg/mL and cells growth was allowed to continue.
# Single clones were selected as follows. The stable pool was diluted to 10 cells/mL and seeded (100 μl/well) into 24×96 well plates (˜1 cell/well) and allowed to grow for 7 days in cell growth media. Fresh media (100 μl) was added and the cells allowed to grow for another 1-2 weeks and then stored frozen or used immediately.
# 10-point dose response curves were generated using the Echo-550 acoustic dispenser. Compound source plates were made by serially diluting compound stocks to create 10 mM, 1 mM, and 0.1 mM solutions in DMSO into Echo certified LDV plates. The Echo then serially spotted 100%/DMSO stock solutions into source dose response plates to generate a 4-fold dilution scheme. 100%0/DMSO was added to the spotted dose response plates to bring the final volume to 5 μl. 300 nl of the dose response stock plate was then spotted into pre-incubation and stimulation assay plates. 50 μl of pre-incubation buffer and 100 μl of stimulation buffer was then added to the plates resulting in a final assay test concentration range of 30 μM to 0.0001 μM with a final DMSO concentration of 0.3%.
# Human ICLN-1633 cells expressing were plated onto 384 well, black PDL-coated microplates and maintained in TRPC5 growth media the day prior to use for experiments. TRPC5 expression was induced by the application of 1 μg/mL tetracycline at the time of plating. […] Cells are incubated at room temperature, protected from light, for 60-90 minutes. After the incubation period, the dye is removed and replaced with 10 μl of EBSS. Cell, pre-incubation and stimulation plates are loaded onto the FLIPR-II and the assay is initiated. The FLIPR measures a 10 second baseline and then adds 10 μl of 2X compounds (or controls). Changes in fluorescence are monitored for an additional 5 minutes. After the 5 minute pre-incubation, 20 μl of 2X Riluzole (with 1X compound or controls) is added to the cell plate. The final Riluzole stimulation concentration in the assay is 30 μM. After the Riluzole addition, changes in fluorescence are monitored for an additional 5 minutes.
# Compound modulation of TRPC5 calcium response was determined as follows. After the Englerin A, fluorescence was monitored for a 5-minute period. The maximum relative fluorescence response (minus the control response of 1 μM of an internal control compound known to maximally block TRPC5 calcium response, the “REF INHIB” in the formula below) was captured and exported from the FLIPR.
# Compound effect is calculated as % inhibition using the following formula:
# [formula] wherein “RFU” is the relative fluorescent units.
row,Structure (SMILES),IC50 [nM]
1,O=c1[nH]ncc(N2CCc3c(ncnc3Oc3ccc(F)cc3Cl)C2)c1Cl [Compound 104],< 50
2,"CC1Cc2c(ncnc2Oc2ccc(F)cc2Cl)CN1c1cn[nH]c(=O)c1Cl (single isomer, unassigned) [Compound 117]",< 50
